Experimental data: PubChem BioAssay AID342 (DTP/NCI, 2004)
Several values for one entry are separate records, joined by “and”; a condition that tells them apart may be missing. Equal values may be shown once.

Tested on: Swiss mice, Sarcoma 180 sc, mean tumor weight T/C
Assay: NCI In Vivo Anticancer Drug Screen. Data for tumor model Sarcoma 180 (subcutaneous) in Swiss mice
Conditions: endpoint: mean tumor weight, higher = larger tumour
Method: The antitumor activity of compounds was measured in mice bearing transplantable tumors. Survival or tumor size were measured and the results are expressed as the measurement made in the treated group (T) divided by the measurement made in the vehicle treated control group (C). The tumor model used in this assay is Sarcoma 180 (subcutaneous) in Swiss mice

## CS(=O)(=O)OCCC(=O)N1CCN(C(=O)CCOS(C)(=O)=O)CC1
dose: 12.5 mg/kg/injection, schedule: Q01DX007 (ip), vehicle: saline
  T/C: 92 % of control
dose: 25.0 mg/kg/injection, schedule: Q01DX007 (ip), vehicle: saline
  T/C: 76 % of control and 100 % of control
dose: 67.0 mg/kg/injection, schedule: Q#A X014 (ip), vehicle: methylcellulose (MC)
  T/C: 8 % of control and 23 % of control
dose: 150.0 mg/kg/injection, schedule: Q#A X014 (ip), vehicle: methylcellulose (MC)
  T/C: 7 % of control

## Cc1ccc(NC(C(=O)c2ccccc2)c2ccccc2)cc1 (stereo not given)
dose: 150.0 mg/kg/injection, schedule: Q01DX007 (ip), vehicle: saline
  T/C: 39 % of control
dose: 225.0 mg/kg/injection, schedule: Q01DX007 (ip), vehicle: saline
  T/C: 20 % of control

## CN(C)N=Nc1n[nH]nc1C(N)=O
dose: 31.0 mg/kg/injection, schedule: Q01DX007 (ip), vehicle: carboxymethylcellulose (CMC)
  T/C: 70 % of control
dose: 62.0 mg/kg/injection, schedule: Q01DX007 (ip), vehicle: carboxymethylcellulose (CMC)
  T/C: 84 % of control
dose: 125.0 mg/kg/injection, schedule: Q01DX007 (ip), vehicle: carboxymethylcellulose (CMC)
  T/C: 43 % of control

## CC(=O)NNC(=O)c1ccccn1
dose: 37.5 mg/kg/injection, schedule: Q01DX007 (ip), vehicle: water
  T/C: 112 % of control
dose: 75.0 mg/kg/injection, schedule: Q01DX007 (ip), vehicle: water
  T/C: 104 % of control
dose: 100.0 mg/kg/injection, schedule: Q01DX007 (ip), vehicle: water
  T/C: 89 % of control
dose: 200.0 mg/kg/injection, schedule: Q01DX007 (ip), vehicle: water
  T/C: 98 % of control

## CC(CNC(=O)CCBr)NC(=O)CCBr (stereo not given)
dose: 110.0 mg/kg/injection, schedule: Q01DX007 (ip), vehicle: carboxymethylcellulose (CMC)
  T/C: 48 % of control and 64 % of control
dose: 167.8 mg/kg/injection, schedule: Q01DX007 (ip), vehicle: carboxymethylcellulose (CMC)
  T/C: 48 % of control
dose: 168.0 mg/kg/injection, schedule: Q01DX007 (ip), vehicle: carboxymethylcellulose (CMC)
  T/C: 34 % of control

## [N-]=[N+]=[N-]
dose: 1.5 mg/kg/injection, schedule: Q01DX007 (ip), vehicle: carboxymethylcellulose (CMC)
  T/C: 88 % of control
dose: 3.0 mg/kg/injection, schedule: Q01DX007 (ip), vehicle: carboxymethylcellulose (CMC)
  T/C: 61 % of control
dose: 6.0 mg/kg/injection, schedule: Q01DX007 (ip), vehicle: carboxymethylcellulose (CMC)
  T/C: 76 % of control
dose: 12.0 mg/kg/injection, schedule: Q01DX007 (ip), vehicle: carboxymethylcellulose (CMC)
  T/C: 69 % of control

## CCCCNC(=O)c1n[se]nc1NC(N)=O
dose: 15.0 mg/kg/injection, schedule: Q01DX007 (ip), vehicle: carboxymethylcellulose (CMC)
  T/C: 94 % of control
dose: 30.0 mg/kg/injection, schedule: Q01DX007 (ip), vehicle: carboxymethylcellulose (CMC)
  T/C: 114 % of control

## CC(=O)Nc1cc2c(cc1Br)-c1ccc(F)cc1C2
dose: 222.0 mg/kg/injection, schedule: Q01DX007 (ip), vehicle: other
  T/C: 56 % of control
dose: 333.0 mg/kg/injection, schedule: Q01DX007 (ip), vehicle: other
  T/C: 44 % of control
dose: 500.0 mg/kg/injection, schedule: Q01DX007 (ip), vehicle: other
  T/C: 22 % of control

## CNC(C)C(O)c1ccccc1 (stereo not given)
dose: 133.0 mg/kg/injection, schedule: Q01DX007 (ip), vehicle: saline
  T/C: 78 % of control
dose: 200.0 mg/kg/injection, schedule: Q01DX007 (ip), vehicle: saline
  T/C: 60 % of control

## CCOC(=O)C(N)CC(C)C (stereo not given)
dose: 250.0 mg/kg/injection, schedule: Q01DX007 (ip), vehicle: carboxymethylcellulose (CMC)
  T/C: 101 % of control
dose: 500.0 mg/kg/injection, schedule: Q01DX007 (ip), vehicle: carboxymethylcellulose (CMC)
  T/C: 120 % of control

## CCCCOCN1CCCCC1
dose: 50.0 mg/kg/injection, schedule: Q01DX007 (ip), vehicle: carboxymethylcellulose (CMC)
  T/C: 64 % of control
dose: 100.0 mg/kg/injection, schedule: Q01DX007 (ip), vehicle: carboxymethylcellulose (CMC)
  T/C: 123 % of control

## COC(=O)C1(N)CCCC1
dose: 60.0 mg/kg/injection, schedule: Q01DX007 (ip), vehicle: carboxymethylcellulose (CMC)
  T/C: 59 % of control
dose: 90.0 mg/kg/injection, schedule: Q01DX007 (ip), vehicle: carboxymethylcellulose (CMC)
  T/C: 42 % of control
dose: 135.0 mg/kg/injection, schedule: Q01DX007 (ip), vehicle: carboxymethylcellulose (CMC)
  T/C: 33 % of control
dose: 202.0 mg/kg/injection, schedule: Q01DX007 (ip), vehicle: carboxymethylcellulose (CMC)
  T/C: 20 % of control
